Assay results taken from patent publication US4187245A, “Hydroxypropylene-amino-phosphonic-sulfonic acids” (Petrolite Corporation, priority 1978, dated 1980).
Where a name gives a salt, the structure may show the parent alone.

Experiments:
[1] = Calcium Scale Inhibition Test; conditions: 180° F., samples at 2 and 4 hours
Protocol: Calcium Scale Inhibition Test
The procedure utilized to determine the effectiveness of scale inhibitors in regard to calcium scale is as follows:
Several 50 ml. samples of a 0.04 sodium bicarbonate solution are placed in 100 ml. bottles. To these solutions is added the inhibitor in various known concentrations. 50 ml. samples of a 0.02 M CaCl2 solution are then added.
A total hardness determination is then made on the 50--50 mixture utilizing the well known Schwarzenbach titration. The samples are placed in a water bath and heated at 180° F. 10 ml. samples are taken from each bottle at 2 and 4 hour periods. These samples are filtered through millipore filters and the total hardness of the filtrates are determined by titration. [formula]

[2] = prior-art background; cited from earlier work

Structure (SMILES): O=P(O)(O)CN(CCN(CC(O)CS(=O)(=O)O)CP(=O)(O)O)CC(O)CS(=O)(=O)O (stereo not drawn) [Example 17]
- % Inhibition (Calcium Scale Inhibition) ([1]; 15 ppm): 72%
- % Inhibition (Calcium Scale Inhibition) ([1]; 25 ppm): 96%
- % Inhibition (Calcium Scale Inhibition) ([1]; 50 ppm): 100%

Structure (SMILES): O=S(=O)(O)CC(O)CNCCNCCNCC(O)CS(=O)(=O)O (stereo not drawn) [Example 10]
- % Inhibition (Calcium Scale Inhibition) ([1]; 25 ppm): 45%

Structure (SMILES): NCCNCC(O)CS(=O)(=O)O (stereo not drawn) [Example 7]
- % Inhibition (Calcium Scale Inhibition) ([1]; 50 ppm): 50%

Structure (SMILES): O=P(O)(O)CN(CCN(CP(=O)(O)O)CP(=O)(O)O)CC(O)CS(=O)(=O)O (stereo not drawn) [Example 16]
- % Inhibition (Calcium Scale Inhibition) ([1]; 10 ppm): 91%
- % Inhibition (Calcium Scale Inhibition) ([1]; 25 ppm): 100%

Structure (SMILES): O=S(=O)(O)CC(O)CNCCNCC(O)CS(=O)(=O)O (stereo not drawn) [Example 8]
- % Inhibition (Calcium Scale Inhibition) ([1]; 50 ppm): 45%

Structure (SMILES): O=P(O)(O)CN(CCN(CC(O)CS(=O)(=O)O)CP(=O)(O)O)CCN(CC(O)CS(=O)(=O)O)CP(=O)(O)O (stereo not drawn) [Example 19]
- % Inhibition (Calcium Scale Inhibition) ([1]; 25 ppm): 86%
- % Inhibition (Calcium Scale Inhibition) ([1]; 50 ppm): 100%

Structure (SMILES): O=C(O)CN(CCN(CC(=O)O)CC(=O)O)CC(=O)O [ethylenediamine tetracetic acid salts]
- threshold activities [2]: no threshold activities

Structure (SMILES): NCCNCCNCC(O)CS(=O)(=O)O (stereo not drawn) [Example 9]
- % Inhibition (Calcium Scale Inhibition) ([1]; 50 ppm): 45%
